Data published in patent US20260315464A1, “COMPOSITIONS, METHODS, AND SYSTEMS FOR MODULATING SPLICING OF MSH3” (REVIR THERAPEUTICS, INC., priority 2023, published 2026).

Test system: MSH3
Assay: QPCR assay for levels of MSH3 upon compound treatment in HEK293T or AD293 cells (fold-change of MSH3 transcript, EC50 of MSH3 downregulation; total MSH3 exons 13/14, exons 20/21; Table 8)
Type: cell-based
Conditions: for EC50: EC50 of MSH3 downregulation, XtalPi; for mrna remaining at 1 µM / mrna remaining at 10 µM: Homo sapiens, fold-change of the MSH3 transcript, normalized to GAPDH; for mrna remaining at 1 µM: 1 μM compound; for mrna remaining at 10 µM: 10 μM compound
How it was run: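 HEK293T or AD293 cells were treated at 1 μM and […]; RNA-to-cDNA qPCR used TaqMan assays for total MSH3 (exons 13/14, exons 20/21) and poison-exon junctions exon 13/PE14A and exon 20/PE21A. Transcript levels were normalized to GAPDH.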

EC50	Structure (SMILES)	mrna remaining at 1 µM	mrna remaining at 10 µM
799 nM	Cc1nn(C)nc1-c1cc(F)c2c(c1)C(=O)N(c1ccc(O[C@H]3C[C@]4(C)CC[C@](C)(C3)N4)nn1)C2 [Compound 283, 6-(2,5-dimethyl-2H-1,2,3-triazol-4-yl)-2-(6-(((1R,3s,5S)-1,5-dimethyl-8-azabicyclo[3.2.1]octan-3-yl)oxy)pyridazin-3-yl)-4-fluoroisoindolin-1-one]	48%	11%
–	Cc1nn(C)cc1-c1cc(F)c2c(c1)C(=O)N(c1ccc(OC3CC(C)(C)NC4(CC4)C3)nn1)C2 (stereo not shown) [Compound 284, 6-(1,3-dimethyl-1H-pyrazol-4-yl)-2-(6-((5,5-dimethyl-4-azaspiro[2.5]octan-7-yl)oxy)pyridazin-3-yl)-4-fluoroisoindolin-1-one]	91%	73%
–	Cc1nc(C)c(-c2cc(F)c3c(c2)C(=O)N(c2ccc(O[C@H]4C[C@]5(C)CC[C@](C)(C4)N5)nn2)C3)s1 [Compound 286, 2-(6-(((1R,3s,5S)-1,5-dimethyl-8-azabicyclo[3.2.1]octan-3-yl)oxy)pyridazin-3-yl)-6-(2,4-dimethylthiazol-5-yl)-4-fluoroisoindolin-1-one]	117%	59%
–	Cc1nc(C)c(-c2cc(F)c3c(c2)C(=O)N(c2ccc(N(C)[C@H]4C[C@]5(C)CC[C@](C)(C4)N5)nn2)C3)s1 [Compound 289, 2-(6-(((1R,3s,5S)-1,5-dimethyl-8-azabicyclo[3.2.1]octan-3-yl)(methyl)amino)pyridazin-3-yl)-6-(2,4-dimethylthiazol-5-yl)-4-fluoroisoindolin-1-one]	73%	22%
–	Cc1nn(C)cc1-c1cc(F)c2c(c1)C(=O)N(c1cnc(N(C)[C@H]3C[C@]4(C)CC[C@](C)(C3)N4)nn1)C2 [Compound 291, 6-(1,3-dimethyl-1H-pyrazol-4-yl)-2-(3-(((1R,3s,5S)-1,5-dimethyl-8-azabicyclo[3.2.1]octan-3-yl)(methyl)amino)-1,2,4-triazin-6-yl)-4-fluoroisoindolin-1-one]	93%	81%
~1060 nM	Cc1nn(C)nc1-c1cc(F)c2c(c1)C(=O)N(c1ccc(N(C)C3CC(C)(C)NC(C)(C)C3)nn1)C2 [Compound 293, 6-(2,5-dimethyl-2H-1,2,3-triazol-4-yl)-4-fluoro-2-(6-(methyl(2,2,6,6-tetramethylpiperidin-4-yl)amino)pyridazin-3-yl)isoindolin-1-one]	54%	12%
480 nM	Cc1nn(C)nc1-c1cc(F)c2c(c1)C(=O)N(c1ccc(N(C)[C@H]3C[C@]4(C)CC[C@](C)(C3)N4)nn1)C2 [Compound 294, 6-(2,5-dimethyl-2H-1,2,3-triazol-4-yl)-2-(6-(((1R,3s,5S)-1,5-dimethyl-8-azabicyclo[3.2.1]octan-3-yl)(methyl)amino)pyridazin-3-yl)-4-fluoroisoindolin-1-one]	27%	12%
–	Cc1nn(C)cc1-c1cc(F)c2c(c1)C(=O)N(c1ccc(N3CCN[C@@H](C(C)C)C3)nn1)C2 [Compound 296, (S)-6-(1,3-dimethyl-1H-pyrazol-4-yl)-4-fluoro-2-(6-(3-isopropylpiperazin-1-yl)pyridazin-3-yl)isoindolin-1-one]	54%	–
–	Cc1nn(C)nc1-c1cc(F)c2c(c1)C(=O)N(c1ccc(N3CCN[C@@H](C(C)(C)C)C3)nn1)C2 [Compound 298, (S)-2-(6-(3-(tert-butyl)piperazin-1-yl)pyridazin-3-yl)-6-(2,5-dimethyl-2H-1,2,3-triazol-4-yl)-4-fluoroisoindolin-1-one]	89%	29%
–	Cn1ncc(-c2ccc3c(c2)C(=O)N(c2ccc(OC4CC(C)(C)NC(C)(C)C4)nn2)C3)n1 [Compound 362, 6-(2-methyl-2H-1,2,3-triazol-4-yl)-2-(6-((2,2,6,6-tetramethylpiperidin-4-yl)oxy)pyridazin-3-yl)isoindolin-1-one]	65%	75%
–	CN(c1ccc(N2Cc3ccc(-c4cnn(C)c4)cc3C2=O)nn1)[C@H]1C[C@]2(C)CC[C@](C)(C1)N2 [Compound 367, 2-(6-(((1R,3s,5S)-1,5-dimethyl-8-azabicyclo[3.2.1]octan-3-yl)(methyl)amino)pyridazin-3-yl)-6-(1-methyl-1H-pyrazol-4-yl)isoindolin-1-one]	57%	27%
–	CN(c1ccc(N2Cc3ccc(-c4cnn(C)n4)cc3C2=O)nn1)C1CC(C)(C)NC(C)(C)C1 [Compound 370, 2-(6-(methyl(2,2,6,6-tetramethylpiperidin-4-yl)amino)pyridazin-3-yl)-6-(2-methyl-2H-1,2,3-triazol-4-yl)isoindolin-1-one]	69%	61%
–	[2H]C([2H])([2H])n1cc(-c2ccc3c(c2)C(=O)N(c2ccc(N(C)[C@H]4C[C@]5(C)CC[C@](C)(C4)N5)nn2)C3)cn1 [Compound 387, 2-(6-(((1R,3s,5S)-1,5-dimethyl-8-azabicyclo[3.2.1]octan-3-yl)(methyl)amino)pyridazin-3-yl)-6-(1-(methyl-d3)-1H-pyrazol-4-yl)isoindolin-1-one]	96%	63%
–	Cn1cc(-c2ccc3c(c2)C(=O)N(c2ccc(N4CCN[C@@H](C(C)(C)C)C4)nn2)C3)cn1 [Compound 399, (S)-2-(6-(3-(tert-butyl)piperazin-1-yl)pyridazin-3-yl)-6-(1-methyl-1H-pyrazol-4-yl)isoindolin-1-one]	65%	43%
–	Cc1nn(C)cc1-c1ccc2c(c1)C(=O)N(c1ccc(O[C@H]3C[C@]4(C)CC[C@](C)(C3)N4)nn1)C2 [Compound 416, 6-(1,3-dimethyl-1H-pyrazol-4-yl)-2-(6-(((1R,3s,5S)-1,5-dimethyl-8-azabicyclo[3.2.1]octan-3-yl)oxy)pyridazin-3-yl)isoindolin-1-one]	37%	–
–	CN(c1ncc(N2Cc3ccc(-c4cnn(C)n4)cc3C2=O)nn1)C1CC(C)(C)NC(C)(C)C1 [Compound 420, 2-(3-(methyl(2,2,6,6-tetramethylpiperidin-4-yl)amino)-1,2,4-triazin-6-yl)-6-(2-methyl-2H-1,2,3-triazol-4-yl)isoindolin-1-one]	74%	73%
–	Cc1nn(C)cc1-c1ccc2c(c1)C(=O)N(c1ccc(N(C)[C@H]3C[C@]4(C)CC[C@](C)(C3)N4)nn1)C2 [Compound 423, 6-(1,3-dimethyl-1H-pyrazol-4-yl)-2-(6-(((1R,3s,5S)-1,5-dimethyl-8-azabicyclo[3.2.1]octan-3-yl)(methyl)amino)pyridazin-3-yl)isoindolin-1-one]	37%	10%
–	Cn1ncc(-c2ccc3c(c2)C(=O)N(c2ccc(O[C@H]4C[C@]5(C)CC[C@](C)(C4)N5)nn2)C3)n1 [Compound 425, 2-(6-(((1R,3s,5S)-1,5-dimethyl-8-azabicyclo[3.2.1]octan-3-yl)oxy)pyridazin-3-yl)-6-(2-methyl-2H-1,2,3-triazol-4-yl)isoindolin-1-one]	82%	70%
